This is an account of results in patent US20240116889A1, “ANTIVIRAL COMPOUNDS AND METHODS” (priority 2019, published 2024).

Experiment [1] deals with PR8 H1N1 virus (A/Puerto Rico/8/1934). Type of experiment: in vivo, BALB/c mice.
A further experiment concerns hCoV OC43. Nature of the experiment: hCoV OC43 production in NHBE cells (RT-qPCR). The format is cell-based, human coronavirus OC43. The settings on record: 30 min pre-infection priming, 48 and 72 hpi. The protocol: Cells were primed with TG as indicated for 30 min, washed twice with PBS and infected with hCoV OC43 at 0.01 MOI (based on FFAs) for 3 h; after which cells were again washed twice with PBS and incubated in serum-free Promocell media (supplemented with 0.1 μg/ml TPCK trypsin). Culture media were harvested at 48 and 72 hpi for viral RNA extraction followed by one-step reverse transcription qPCR to detect the relative copy number of OC43 replicase polyprotein lab RNA. Indicated significance using Tukey's multiple comparisons test and percentage viral RNA reduction relative to corresponding DMSO control.

The next experiment has as its system RSV. The experiment in a line: RSV replication in A549 cells (pfu/ml by immunostaining). The conditions noted are these: 30 min TG priming, 72 h infection. Type of experiment: cell-based, human respiratory syncytial virus. The protocol: FIG. 37—Pre- and post-infection priming with TG 24 h inhibited RSV replication. […] (A) In pre-infection, cells primed with TG or control DMSO, washed with PBS, cultured in fresh media for 24 h and infected with RSV at 0.1 MOI for 2 h followed by media replacement with fresh DMEM containing 2% FCS. (B) In post-infection, cells were first infected similarly for 24 h, then primed with TG or DMSO for 30 min, washed with PBS and replaced with fresh media. In both treatment groups (A and B), cells were infected for a total period of 72 h, after which spun supernatants were used to determine progeny virus output (pfu/ml) on HEp2 cells by immunostaining with mouse anti-RSV (F27) antibody. HEp2 cells were more permissive to RSV replication than A549 cells. (C) Comparison of TG and ribavirin (Riba) in the inhibition of RSV replication. HEp-2 cells were primed with TG, Riba or control DMSO as indicated for 30 min, rinsed with PBS and infected with RSV. Riba was continuously present during infection. Four days post-infection, media were sampled for the detection of viral M-gene RNA by one-step reverse transcription-qPCR. Unless otherwise indicated, significance (based on one-way ANOVA with Tukey's multiple comparison test) is relative to DMSO control.

Take `C/C=C(/C)C(=O)O[C@H]1C(C)=C2[C@H]([C@@H]1OC(=O)CCCCCCC)[C@@](C)(OC(C)=O)C[C@H](OC(=O)CCC)[C@@]1(O)[C@H]2OC(=O)[C@@]1(C)O` [TG, thapsigargin]: in experiment [1] (TG 30 ng by gavage daily), the “body weight of surviving treated mice” value is reported as “progressive weight gain from 9 dpi”. For the same compound, in experiment [1] (TG 30 ng by gavage daily, […]), the “PR8 virus loads in lungs vs control mice” value was “significantly lower” and the “gross lung pathology” value is “more localised to the vicinity of virus entry site”. For the same compound, the “survival of infected mice” value in experiment [1] (mouse, in vivo) is listed as 40%. Besides, the “hCoV OC43 production” value in the experiment with hCoV OC43 is “reduced hCoV OC43 production in a dose-dependent manner”. Also, in the experiment on RSV, the “RSV replication, priming 24 h before or 24 h post-infection” value is “strongly inhibited RSV replication”.
